Assay results published in patent US12006330B2, “Substituted macrocyclic compounds and related methods of treatment” (Alkermes, Inc., priority 2020, dated 2024).

Experiments:
Assay type in all cases: in vitro ADME
MDR1 = test: MDCK-MDR1 permeability assay; conditions: dog, MDCK-MDR1, MDCK-MDR1 cells; for efflux ratio at 2 h, 3 μM: Papp B→A divided by Papp A→B, read-out: Efflux ratio (ER); for Papp A→B at 2 h, 3 μM: test compound 3 μM, 2 hours at 37 degrees C, apical to basolateral
Method: The bidirectional permeability (Apical to Basal and Basal to Apical directions) of test compounds in MDCK-MIDR1 cells were evaluated using MDCK-MIDR1 cells seeded in Solvo PreadyPort™ MDCK 96-well plate. Once the plate was received from ReadyCell (Barcelona, Spain), it was treated as per PreadyPort™ user's manual.
For the Apical to Basolateral (A→B) permeability, 80 μL of test compound (3 μM) co-dosed with LY (Lucifer Yellow) (100 μM) in HBSS (Hank's Balanced Salt Solution) assay buffer was added to the donor side (A) while 250 μL of HBSS buffer was added to the receiver side (B). For the Basolateral to Apical (B→A) permeability, 255 μL of test compound (3 μM) in HBSS assay buffer was added to the donor side (B) while 75 μL of HBSS buffer containing LY (100 μM) was added to the receiver side (A).
The plate was placed in an incubator set at 37 degrees C. After 10 minutes of pre-warming, 5 μL aliquot was taken from donor compartment and set aside as the dosing solution. The MDCK-MDR1 incubation plate was placed back into the incubator for 2 hours of incubation at 37 degrees C. After 2 hours of incubation, 25 μL and 5 μL aliquots were removed from the receiver and donor sides, respectively. To the 5 μL aliquots taken from the donor sides (before and after a 2-hour incubation) were diluted with 20 μL of the HBSS buffer. All samples were mixed with 150 μL with acetonitrile containing internal standard (IS) and 200 μL water, and analyzed by LC-MS/MS.
The apparent permeability (Papp) was calculated using the following formula: Papp=dQ/dt×1/A×C0 where: • dQ/dt: amount of translocated material over incubation time (nmol/s) • A: area of insert (0.14 cm^2 for PreadyPort™ MDR1-96) • C0: initial concentration of product applied in apical (A→B) or basal (B→A) compartment (nmol/mL)
The efflux ratio (ER) was measured by dividing the Papp (basolateral to apical direction) by Papp (apical to basolateral direction). It is a general measure of the involvement of active processes. An ER>2 is considered positive for active transport.
Percent recovery was measured using the following equation:
[formula] where: • VR: Volume of the receiver compartment (mL) • VD: Volume of the donor compartment (mL) • CN: Concentration of dosing solution (μM) collected after 10 minutes of incubation • CR^final: Receiver concentration at the end of the incubation (μM) • CD^final: Donor concentration at the end of the incubation (μM)
The data reported in Table 3 were obtained according to the MDCK-MDR1 permeability assay described above.

human hepatocytes = test: Hepatocytes stability assay (human hepatocytes); conditions: human hepatocytes; scaled hepatic clearance divided by liver blood flow (well-stirred model, fu assumed unity)
Method: (§1) In vitro metabolic stability was assessed using cryopreserved hepatocytes from male Sprague Dawley rats and a pool of 50 mixed gender humans (BioIVT, Baltimore, MD). The incubation mixtures were prepared by mixing 250 μL of pre-warmed KHB (Krebs-Henseleit buffer) containing 2×10^6 cell/mL of hepatocytes with 250 μL of pre-warmed KHB buffer containing 2 μM of test compounds in a 48-well plate, giving a final concentration of 1 μM test compound (0.1% DMSO) and 1×10^6 cell/mL of hepatocytes. The reaction mixture was incubated at 37 degrees C. A 50 μL aliquot of incubation mixture was taken at time points (0, 15, 30, 60, 120 and 240 minutes) and transferred into a 96-well plate containing 300 μL ice-cold acetonitrile (containing 30 ng/mL of labetalol and 10 ng/mL of Naltrexone-d3 as internal standards) and immediately placed in ice to terminate the reaction. Samples were centrifuged, and supernatants were transferred into 96-well plates for liquid chromatography with tandem mass spectrometry (LC-MS/MS) analysis to monitor the depletion of the test compound.
(§2) Data was calculated as percent remaining by assuming zero-minute time point peak area ratio (analyte/IS) as 100% and dividing remaining time point peak area ratios by zero-minute time point peak area ratio. Data were fitted to a first-order decay model to determine half-life. From a plot of log (ln) peak area against time, the slope of the line was determined. Subsequently, half-life (T1/2) and intrinsic clearance (CLint) were calculated using the equations below: Elimination rate constant (k)=(−slope) Half-life (T1/2) min=0.693/k Intrinsic Clearance (CLint) (mL/min/million cells)=(V×0.693)/T1/2 V=incubation volume mL/number of cells The in vitro T1/2 was converted to in vitro intrinsic clearance (CLint,hep) in units of mL/min/kg using the formula shown below:
(§3) [formula] The in vitro intrinsic clearance (CLint,hep) was scaled to in vivo hepatic clearance (CL,hep) using the following equation which was adapted from a well-stirred model.
(§4) [formula] where Q is the liver blood flow and fu is the fraction unbound (assumed to be unity in this case). All parameters used in the calculation are shown below (Table 4).
(§5) The extraction ratio (ER) was calculated by dividing the hepatic clearance of a compound to the liver blood flow. The data reported in Table 5 were obtained according to the human hepatocytes stability assay described above.

[1] = Hepatocytes stability assay (human hepatocytes); conditions: both sexes, human, cryopreserved hepatocytes, cryopreserved human hepatocytes (pool of 50 mixed gender); 1 μM test compound; 1×10^6 cell/mL; 37 degrees C; read-out: CLint (μL/min/million cells)
Method: as §1, §2, §3, §4, §5

SMILES | efflux ratio at 2 h, 3 μM (MDR1) | Papp A→B at 2 h, 3 μM (MDR1) | Extraction Ratio (ER) (human hepatocytes) | hepatocyte CLint at 1 μM [1]
Cc1ccc2c(c1C)[C@H]1CC[C@H](CC1)OCC1[C@@H](NS(=O)(=O)C3CC3)CCCN1C(=O)CO2 (stereo in doubt) [Compound 77] | 27 | 0.79 ×10⁻⁶ cm/s | 0.63 | 12 µL/min/1e6 cells
Cc1cccc2c1C1CCC(CC1)OC[C@H]1[C@@H](NS(=O)(=O)C(C)C)CCCN1C(=O)CO2 (stereo in doubt) [Compound 9] | 50 | 0.87 ×10⁻⁶ cm/s | 0.83 | 32 µL/min/1e6 cells
Cc1ncnc2c1[C@H]1CC[C@H](CC1)OCC1[C@@H](NS(=O)(=O)C(C)C)CCCN1C(=O)CO2 (stereo in doubt) [Compound 69] | > 100 | < 0.041 ×10⁻⁶ cm/s | 0.34 | 3.4 µL/min/1e6 cells

Now from value to compound:

efflux ratio at 2 h, 3 μM (MDR1) | Papp A→B at 2 h, 3 μM (MDR1) | Extraction Ratio (ER) (human hepatocytes) | hepatocyte CLint at 1 μM [1] | SMILES
67 | 0.44 ×10⁻⁶ cm/s | 0.52 | 7.1 µL/min/1e6 cells | Cc1cnc2c(c1)[C@H]1CC[C@H](CC1)OCC1[C@@H](NS(=O)(=O)C(C)C)CCCN1C(=O)CO2 (stereo in doubt) [Compound 34]
22 | 1.4 ×10⁻⁶ cm/s | 0.74 | 19 µL/min/1e6 cells | O=C1COc2ccccc2C2CCC(CC2)OC[C@H]2[C@@H](NS(=O)(=O)C(F)F)CCCN12 (stereo in doubt) [Compound 7]
> 100 | < 0.092 ×10⁻⁶ cm/s | 0.50 | 6.6 µL/min/1e6 cells | O=C1COc2ccccc2C2CCC(CC2)OC[C@H]2[C@@H](NS(=O)(=O)CCO)CCCN12 (stereo in doubt) [Compound 19]
24 | 1.9 ×10⁻⁶ cm/s | 0.38 | 4.1 µL/min/1e6 cells | Cc1ncnc2c1[C@H]1CC[C@H](CC1)OCC1[C@@H](NS(=O)(=O)C(C)C)CCN1C(=O)CO2 (stereo in doubt) [Compound 86]
41 | 0.62 ×10⁻⁶ cm/s | 0.69 | 15 µL/min/1e6 cells | O=C1COc2cccc(F)c2[C@H]2CC[C@H](CC2)OCC2[C@@H](NS(=O)(=O)C3CC3)CCCN12 (stereo in doubt) [Compound 74]
